Results as given in the NIST ThermoML archive (doi:10.1016/j.jct.2013.12.022).

Columns and labels:
[1] = 100 kPa, Liquid; for viscosity: Cone and plate viscometry; for mass density: Vibrating tube method
[2] = wn = mass fraction of the nth substance listed; conditions: 100 kPa, Liquid, w1 = 0.8465; for viscosity: Cone and plate viscometry; for mass density: Vibrating tube method

CC(CC(C)(C)C)CP(=O)([O-])CC(C)CC(C)(C)C.CCCCCCCCCCCCCC[P+](CCCCCC)(CCCCCC)CCCCCC
[1]
Conditions	mass density [kg/m3]	viscosity [mPa·s]
288.15 K	890.86	1953
293.15 K	887.72	1446.3
298.15 K	884.55	1058.2
303.15 K	881.54	782.72
308.15 K	878.58	587.62
313.15 K	875.62	447.95
318.15 K	872.67	346.95
323.15 K	869.72	272.37
328.15 K	866.77	217.4
333.15 K	863.87	175.07
338.15 K	860.99	–
343.15 K	858.1	–
348.15 K	855.22	–
353.15 K	852.33	80.99
358.15 K	849.44	–
363.15 K	846.56	–
373.15 K	–	42.79
393.15 K	–	24.53
413.15 K	–	15.44
433.15 K	–	10.17

CC(CC(C)(C)C)CP(=O)([O-])CC(C)CC(C)(C)C.CCCCCCCCCCCCCC[P+](CCCCCC)(CCCCCC)CCCCCC + O
[2]
Conditions	mass density [kg/m3]	viscosity [mPa·s]
288.15 K	921.09	286.96
293.15 K	917.76	211.13
298.15 K	914.4	156.74
303.15 K	911.03	119.54
308.15 K	907.66	93.22
313.15 K	904.29	74.08
318.15 K	900.95	60.01
323.15 K	897.66	49.03
328.15 K	894.18	40.7
333.15 K	890.61	34.16

CCCCCCCCCCCC [dodecane]
[1]
Conditions	mass density [kg/m3]	viscosity [mPa·s]
288.15 K	753.43	1.58
293.15 K	749.81	1.47
298.15 K	746.18	1.35
303.15 K	742.55	1.24
308.15 K	738.91	1.14
313.15 K	735.26	1.06
318.15 K	731.61	0.99
323.15 K	727.95	0.93
328.15 K	724.29	0.87
333.15 K	720.61	0.82
